Measurements as given in article PMC7772889, “Integrating biokinetics and in vitro studies to evaluate developmental neurotoxicity induced by chlorpyrifos in human iPSC-derived neural stem cells undergoing differentiation towards neuronal and glial cells” (Reproductive Toxicology (Elmsford, N.y.), 2020).

Legend:
[1] = tested on: hiPSC-derived NSCs undergoing differentiation towards neurons and astrocytes; assay: In vitro biokinetics of CPF and metabolites in medium, cells and plastic (HPLC-UV)
Protocol: The nominal concentration causing 5 % decrease of viability (IC5) was previously identified, extrapolating a dose response curves obtained with six CPF nominal concentrations (0.49, 1.95, 7.81, 31.25, 125, and 500 μM) vs solvent control (0.1 % DMSO) after 14-day treatment by means of resazurin test (CellTiter-Blue® Reagent).
CPF stock solutions were prepared in DMSO and stored in glass at −20 °C until the beginning of each experiment. Freshly prepared treatment solutions were obtained after the dilution of stock solutions in a ratio of […] in serum-free culture medium, keeping DMSO concentration at 0.1 %. Aliquots of the stock and daily treatment solutions (considered as the starting solutions) were stored at −80 °C until HPLC analysis.
Cells (about 21,000 cells/cm^2), seeded on 6 well PDL- and reduced growth factor Matrigel coated plates, were treated during the differentiation process, starting from day 7 of differentiation up to day 21, with treatment/medium refreshed twice a week (Fig. 2). Exposure to CPF of cells or pre-coated wells (without cells) was initiated by adding 2 mL per well of the corresponding treatment solutions or the vehicle (control wells). Four biological replicates were carried out.
A first set of experiments was used to fine tune the experimental conditions, including time points and exposure conditions, taking into account possible metabolism, bioaccumulation and/or physical sequestration processes. All the fractions (i.e., medium, cells, plastic and matrix-bound fractions) were collected, at the first and last day of treatment, at different time points (i.e., 1, 3, 6, 24 h) selected on the basis of the intrinsic features of the compound and the cellular model. At each time point, the medium was transferred into amber glass vials and stored at −80 °C until HPLC analysis. Cells were washed twice with PBS (2 mL/well); to avoid dehydration of the cells, an aliquot of PBS was kept in each well. PBS was then removed, cells were scraped from the wells in 250 μL MeOH, additional 100 μL MeOH were added for washing and all the content was transferred into amber glass vials. The same procedure was applied also to the wells used for measuring matrix-bound material (without cells). Cells were then sonicated until they were fully homogenized (about 15 min). All fractions, including DMSO from control wells and MeOH used to measure possible plastic binding, were stored at −80 °C until HPLC analysis. Four biological replicates were carried out.
All samples from kinetic experiments were analysed using high-performance liquid chromatography (HPLC), as previously described, to quantify CPF and its metabolites. Prior to analysis, one volume of the collected medium samples was mixed with three volumes of MeOH. All the mixtures, including cell and matrix-bound samples, were vortexed for 30 s and then centrifuged (Eppendorf 5417R; 4 °C, 2500 rpm) for 10 min. Preliminary assays were conducted to evaluate CPF and its metabolite recovery after the solvent extraction procedure from each type of sample. […] Plastic-bound fraction was injected as such.
The HPLC system included a PerkinElmer Series 200 analytical pump, a Restek™ Pinnacle ODS Amine C18 column, a PerkinElmer LC 235 Diode Array Detector and the PerkinElmer Totalchrom™ 3.1.2 software for data acquisition and evaluation. For analysing CPF, CPFO and TCP, a gradient elution was applied at a flow rate of 1.0 mL/min, starting at 80:20 % methanol /buffer (Tris /HCl 50 mM EDTA 1 mM pH 7.4) and reaching after 4 min a percentage of 70:30 (v/v), respectively, maintained for 16 min. Then, the gradient returned to the initial concentration before the next sample was injected.

[2] = cited from earlier work
[3] = prenatal exposure to CPF; cited from earlier work

Oc1nc(Cl)c(Cl)cc1Cl [TCP, 3,5,6-trichloro-2-pyridinol]
TCP in the intracellular compartment or adsorbed to the plastic ([1]; any time point): No TCP was detectable | TCP present in the medium ([1]; first day of treatment with 21 μM CPF): 6–18% | TCP present in the medium ([1]; last day of treatment with 21 μM CPF): 7–14%

CCCCc1oc2ccccc2c1C(=O)c1cc(I)c(OCCN(CC)CC)c(I)c1 [amiodarone, reference compound]
log Kow [2]: 7.6

CCOP(=O)(O)OCC [diethylphosphate]
level in human postpartum meconium [3]: 0.80 to 3.20 µg/g

CCOP(O)(=S)OCC [diethylthiophosphate]
level in human postpartum meconium [3]: 2.0 to 5.6 µg/g

chlorpyrifos-oxon [CPFO]
CPFO adsorbed to the plastic ([1]; any time point): no CPFO adsorbed to the plastic was detectable | CPFO detection ([1]; last day of treatment): no longer detectable
